Measurements reported in patent US10597388B2, “Pyridazinone herbicides” (FMC CORPORATION, priority 2014, dated 2020).

Legend:
Assay type in all cases: in vivo
[1] = test system: chickweed (common chickweed, Stellaria media); test: Test C greenhouse herbicide test, postemergence
Outline: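 Seedlings are raised in pots of peat moss–vermiculite medium with starter nutrients, then receive postemergence test chemical at the 1- to 4-leaf stage. They are kept in the greenhouse 13 to 15 d and scored visually versus controls, 0 meaning no effect and 100 complete control.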

[2] = test system: ducksalad (Heteranthera limosa); test: Test B flooded paddy test; settings: 250 g ai/ha, Flood; visual rating on scale of 0 to 100 where 0 is no effect and 100 is complete control; 13 to 15 d after treatment
Outline: (§1)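 Plants grown to the 2-leaf stage. At treatment, pots were flooded to 3 cm above the soil, compound was applied directly to the paddy water, and that depth was held throughout. After 13 to 15 d in the greenhouse, response was rated visually against controls on a 0 (no effect) to 100 (complete control) scale.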

[3] = test system: sedge, umbrella (small-flower umbrella sedge, Cyperus difformis); test: Test B flooded paddy test; settings: 250 g ai/ha, Flood; visual rating on scale of 0 to 100 where 0 is no effect and 100 is complete control; 13 to 15 d after treatment
Outline: as §1

[4] = test system: barnyardgrass (Echinochloa crus-galli); test: Test B flooded paddy test; settings: 250 g ai/ha, Flood; visual rating on scale of 0 to 100 where 0 is no effect and 100 is complete control; 13 to 15 d after treatment
Outline: as §1

[5] = test system: rice (Oryza sativa); test: Test B flooded paddy test; settings: 250 g ai/ha, Flood; visual rating on scale of 0 to 100 where 0 is no effect and 100 is complete control; 13 to 15 d after treatment
Outline: as §1

[6] = test system: ryegrass, Italian (Italian ryegrass, Lolium multiflorum); test: Test A greenhouse herbicide test, pre- and postemergence
Outline: (§2)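 Seeds in loam–sand blend received a preemergence directed soil spray; plants at 2–10 cm, one- to two-leaf stage, received postemergence sprays. Compounds in a non-phytotoxic solvent with surfactant. After about 10 d in a greenhouse, injury rated visually versus untreated controls on a 0–100 scale (100 = complete control).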

[7] = test system: foxtail, giant (giant foxtail, Setaria faberii); test: as above
Outline: as §2

[8] = Postemergence, 31 g ai/ha, 0 to 100 scale (0 no effect, 100 complete control)
[9] = Postemergence, 125 g ai/ha, scale 0 to 100, 0 is no effect, 100 is complete control
[10] = Postemergence, 250 g ai/ha, scale 0 to 100, 0 no effect, 100 complete control, 13 to 15 d
[11] = postemergence, 62 g ai/ha, scale 0 to 100, 0 no effect, 100 complete control
[12] = Postemergence, 125 g ai/ha, 0 to 100 scale where 0 is no effect and 100 is complete control
[13] = Postemergence, 500 g ai/ha, 0 to 100 scale, 0 is no effect, 100 is complete control
[14] = Preemergence, 125 g ai/ha, 0 to 100 scale where 0 is no effect and 100 is complete control
[15] = Preemergence, 500 g ai/ha, 0 to 100 scale, 0 no effect, 100 complete control
[16] = Postemergence, 125 g ai/ha, visual rating after approx. 10 d, 0 to 100 scale (0 no effect, 100 complete control)
[17] = Postemergence, 1000 g ai/ha, 0 to 100 scale, 0 is no effect, 100 is complete control
[18] = Preemergence, 1000 g ai/ha, 0 to 100 scale, 0 no effect, 100 complete control

Compound	Chickweed plant response rating [1, 8]	Plant response rating, Chickweed [1, 9]	Plant response rating, Chickweed [1, 10]	Chickweed plant response rating [1, 11]	Plant response rating, Ducksalad [2]	Plant response rating, Sedge, Umbrella [3]	Plant response rating, Barnyardgrass [4]	Plant response rating, Rice [5]	Plant response rating, Ryegrass, Italian [6, 12]	Ryegrass, Italian plant response rating [6, 13]	Ryegrass, Italian plant response rating [6, 14]	Plant response rating, Ryegrass, Italian [6, 15]	Plant response rating, Foxtail, Giant [7, 16]	Foxtail, Giant plant response rating [7, 13]	Foxtail, Giant plant response rating [7, 14]	Plant response rating, Foxtail, Giant [7, 15]	Plant response rating, Foxtail, Giant [7, 12]	further results
CC(=O)Oc1c(C)nn(C)c(=O)c1-c1c(C)sc2ccc(C)cc12 [Compound 25]	90	100	100	98	20	60	30	0	100	100	100	100	90	90	90	90	–	–
CC(=O)Oc1c(C)nn(C)c(=O)c1-c1c(C)sc2c(C)cc(C)cc12 [Compound 27]	95	100	100	100	30	80	30	40	100	100	100	100	90	90	90	100	–	–
CCC(=O)Oc1c(C)nn(C)c(=O)c1-c1c(C)sc2c(C)cc(C)cc12 [Compound 28]	95	98	95	95	80	95	60	40	90	100	100	100	90	90	100	100	–	–
COc1nn(C)c(=O)c(-c2c(C)sc3ccccc23)c1O [Compound 33]	85	90	95	90	0	0	0	0	50	70	20	60	40	90	50	70	–	–
COc1nn(C)c(=O)c(-c2c(C)ccc3ccccc23)c1OC(=O)OC(C)C [Compound 36]	80	95	95	95	30	70	0	20	70	80	70	70	80	90	80	90	–	–
CCC(=O)Oc1c(C)nn(C)c(=O)c1-c1c(C)sc2ccc(C)cc12 [Compound 42]	90	100	100	100	0	0	0	0	100	100	100	100	–	100	80	100	90	–
Cc1cc(C)c2ccccc2c1-c1c(O)cnn(C)c1=O [Compound 51]	50	70	90	55	0	0	0	0	60	90	50	90	–	80	50	90	50	–
COc1nn(C)c(=O)c(-c2c(C)ccc3ccccc23)c1O [Compound 54]	95	95	100	95	0	0	0	0	60	100	30	100	–	90	60	100	60	–
Cc1ccc2ccccc2c1-c1c(O)cnn(C)c1=O [Compound 56]	5	55	70	10	0	0	0	0	90	100	100	100	–	60	30	70	20	–
Cc1ccc2ccccc2c1-c1c(O)c(C)nn(C)c1=O [Compound 59]	90	98	98	98	0	0	0	0	100	100	90	100	–	100	90	100	90	–
Cc1ccc2ccc(C)c(-c3c(O)c(C)nn(C)c3=O)c2c1 [Compound 60]	90	95	98	95	20	30	35	35	–	–	–	–	–	–	–	–	–	Ryegrass, Italian plant response rating [6, 17]: 100; Plant response rating, Ryegrass, Italian [6, 18]: 100; Foxtail, Giant plant response rating [7, 17]: 90; Plant response rating, Foxtail, Giant [7, 18]: 90
